Where two headings read alike, the source gives them in different places.

For series [1] the following is noted: cited from earlier work.
The test system of series [2] is chondrogenic, angiogenic, osteogenic, tendon maturation/modulation, and hormonal genes. Briefly: Mouse rotator cuff repair, RNA expression analysis at 2 weeks. In kind it is in vivo, male wild type mice. Particulars: Repair+DES vs Repair Only, p<0.02. The source says:
(§1) Twenty-nine male wild type mice were randomly divided into three study groups. Group 1 (Control) consisted of unoperated mice which provided intact “control” shoulders with normal rotator cuff tendons. Group 2 (Repair Only) was a surgical repair group injected with the drug carrier used in Group 3. Group 3 (Repair+DES) was a surgical repair group injected with diethylstilbestrol (DES). Twenty-three mice were sacrificed four weeks post-operatively and used for histological analyses including scanning electron & light microscopy. The six remaining mice (n=3 Repair Only and n=3 Repair+DES) were sacrificed at 2 weeks for RNA expression analysis of various chondrogenic, angiogenic, osteogenic, tendon maturation/modulation, and hormonal genes.

Another series has as its system rotator cuff enthesis. Nature of the series: Mouse rotator cuff repair, histological analyses four weeks post-operatively. It is filed as in vivo, male wild type mice.
Description: as §1

The nature of series [3]: Multi-payor national database study: infection after rotator cuff repair. In kind it is in vivo. Particulars: patients receiving testosterone replacement vs non-testosterone replacement patients, adjusted. Here is the method:
A study within a multi-payor large national database with over 160 million individuals was conducted including 292,666 patients who underwent RCR and an equal number of controls matched for age, sex, year of surgery, and years within the database.
The higher testosterone levels found in males as compared to females increase the presence of Cutibacterium acnes on the skin.

The test system of a further series is rotator cuff repair. The settings on record: mouse and rat models; cited from earlier work.
The mark [4] stands for this setting: Table 1, available forms of estrogen.
[5] abbreviates: Table 2, available forms of testosterone.

Consider `CCN(CC)CCOc1ccc(C(=C(Cl)c2ccccc2)c2ccccc2)cc1` [Clomiphene (SERM), Clomiphene], for which the Half-life in series [1] (setting [4]) is recorded as 5 days.
Take `CC/C(=C(/CC)c1ccc(O)cc1)c1ccc(O)cc1` [DES, diethylstilbestrol]: the “osteogenic, angiogenic, and tendon modulation gene expression” value in series [2] is reported as “further increased”. Besides, the “areas of calcified and uncalcified fibrocartilage” value in the series with rotator cuff enthesis (Repair Only vs Control and Repair+DES, p<0.03) is recorded as “significantly greater in the Repair Only group”. For the same molecule, the “bone formation within the humeral head” value with rotator cuff enthesis (Repair+DES vs Repair Only and Control (intact tendon), p<0.001) was “increase of bone formation”.
With `C[C@](O)(COc1ccc(C#N)cc1)C(=O)Nc1ccc(C#N)c(C(F)(F)F)c1` [Enobosarm], the Half-life in series [1] (setting [5]) is 0.0694 days.
Regarding `C[C@]12CC[C@@H]3c4ccc(OC(=O)c5ccccc5)cc4CC[C@H]3[C@@H]1CC[C@@H]2O` [Estradiol benzoate], the Half-life in series [1] (setting [4]) is 2 to 5 days.
On to `C[C@]12CC[C@@H]3c4ccc(O)cc4CC[C@H]3[C@@H]1CC[C@@H]2OC(=O)CCC1CCCC1` [Estradiol cypionate], for which the Half-life in series [1] (setting [4]) is 8 to 10 days.
As for `CCC(=O)Oc1ccc2c(c1)CC[C@@H]1[C@@H]2CC[C@]2(C)[C@@H](OC(=O)CC)CC[C@@H]12` [Estradiol dipropionate], in series [1] (setting [4]), the Half-life is listed as over 5 days.
Take `CCCCCCC(=O)O[C@H]1CC[C@H]2[C@@H]3CCc4cc(O)ccc4[C@H]3CC[C@]12C` [Estradiol enanthate]: the Half-life in series [1] (setting [4]) was 5 to 8 days.
Turning to `CCCCCCCCCCC(=O)O[C@H]1CC[C@H]2[C@@H]3CCc4cc(O)ccc4[C@H]3CC[C@]12C` [Estradiol undecylate], the Half-life in series [1] (setting [4]) was 1-2 mon.
Take `CCCCC(=O)O[C@H]1CC[C@H]2[C@@H]3CCc4cc(O)ccc4[C@H]3CC[C@]12C` [Estradiol valerate]: the Half-life in series [1] (setting [4]) was 4 to 5 days.
Take `N#Cc1ccc(N2CCC[C@@H]2[C@@H](O)C(F)(F)F)cc1C(F)(F)F` [Ligandrol]: the Half-life in series [1] (setting [5]) was 1 to 1.5 days.
With `CC/C(=C(\c1ccccc1)c1ccc(OCCN(C)C)cc1)c1ccccc1` [Tamoxifen (SERM), Tamoxifen], in series [1] (setting [4]), the Half-life was 5 to 7 days.
On to `C[C@]12CC[C@H]3[C@@H](CCC4=CC(=O)CC[C@@]43C)[C@@H]1CC[C@@H]2OC(=O)CCC1CCCC1` [Testosterone cypionate], for which, in series [1] (setting [5]), the Half-life is recorded as 8 days.
Regarding `CCCCCCC(=O)O[C@H]1CC[C@H]2[C@@H]3CCC4=CC(=O)CC[C@]4(C)[C@H]3CC[C@]12C` [Testosterone enanthate], the Half-life in series [1] (setting [5]) was 4.5 days.
With `CCC(=O)O[C@H]1CC[C@H]2[C@@H]3CCC4=CC(=O)CC[C@]4(C)[C@H]3CC[C@]12C` [Testosterone propionate], the Half-life in series [1] (setting [5]) was 2 days.
`CCCCCCCCCCC(=O)O[C@H]1CC[C@H]2[C@@H]3CCC4=CC(=O)CC[C@]4(C)[C@H]3CC[C@]12C` [Testosterone undecanoate (PO), Testosterone undecanoate]: the Half-life was 0.0694 days in series [1] (setting [5]) and 34 days in series [1] (Table 2, available forms of testosterone, listed as Testosterone undecanoate (IM)).
For the molecule `C[C@]12CC[C@H]3[C@@H](CCC4=CC(=O)CC[C@@]43C)[C@@H]1CC[C@@H]2O` [testosterone], the “increase in risk of having an infection after an RCR” value in series [3] is on record as 75%.
As to FGF-2: fibroblast growth factor 2, in the series with rotator cuff repair, the “histologic or biomechanical characteristics after rotator cuff repair” value is on record as “positively influence histologic or biomechanical characteristics”.
For the molecule “TGF-beta1: transforming growth factor beta1”, the “histologic or biomechanical characteristics after rotator cuff repair” value in the series with rotator cuff repair is “positively influence histologic or biomechanical characteristics”.

B1: PDGF-BB: platelet derived growth factor-BB (protein, UniProt P01127 82-190, looked up)
Platelet-derived growth …: SLGSLTIAEPAMIAECKTRTEVFEISRRLIDRTNANFLVWPPCVEVQRCSGCCNNRNVQCRPTQVQLRPVQVRKIEIVRKKPIFKKATVTLEDHLACKCETVAAARPVT
For B1, the “histologic or biomechanical characteristics after rotator cuff repair” value in the series with rotator cuff repair is on record as “positively influence histologic or biomechanical characteristics”.
